Measured values: paper PMC7377239, “Cardiovascular Effects of Polychlorinated Biphenyls and Their Major Metabolites” (Environmental Health Perspectives, 2020)
Like-named read-outs stand apart in the source and are kept apart here.

What was measured:
[1] = system: iCell cardiomyocytes (human iPSC-derived cardiomyocytes); test: High-content imaging of cytotoxicity and mitochondrial integrity in iPSC-CMs; type: cell-based; conditions: Homo sapiens; for viability at 0.01 µM / activity at 0.01 µM / viability at 0.1 µM / activity at 0.1 µM / viability at 1 µM / activity at 1 µM / viability at 10 µM / activity at 10 µM / viability at 100 µM / activity at 100 µM: 0.00 µM = 100.00; for viability at 0.1 µM / activity at 0.1 µM: 0.10 µM
Summary of the method: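 Human iPSC-derived cardiomyocytes were seeded on gelatin-coated 384-well plates at 5,000 cells per well and maintained for 12 d. Test chemicals were added as 10μL of 5× solutions to final concentrations of 0.01 to 100μM. Cells were stained with Hoechst 33342 and MitoTracker™ Orange, fixed in formaldehyde, and imaged by confocal high-content microscopy at 10× magnification.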

HUVECs = test: High-content imaging cytotoxicity in HUVECs, 24 h; type: cell-based, human; conditions: Homo sapiens, HUVEC, 24 h, HUVEC; for viability at 0.01 µM / activity at 0.01 µM / viability at 0.1 µM / activity at 0.1 µM / viability at 1 µM / activity at 1 µM / viability at 10 µM / activity at 10 µM / viability at 100 µM / activity at 100 µM: 0.00 µM = 100.00; for viability at 0.1 µM / activity at 0.1 µM: 0.10 µM
Summary of the method: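 HUVECs (passages 1–5) grown to monolayer over 3–5 d, then exposed 24 h at 37°C, 5% CO2; stained with Hoechst 33342, MitoTracker Orange and calcein AM and imaged at 10×. Readouts normalized to 0.5% DMSO vehicle, four-parameter logistic fit; POD at one-SD cutoff, 100μM assigned when no response.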

[2] = Cardiomyocyte, 1.5 h, read-out: cm.cam.90min
[3] = Cardiomyocyte, 1.5 h, read-out: cm.mii.90min
[4] = Cardiomyocyte, 1.5 h, read-out: cm.mito.90min
[5] = Cardiomyocyte, 1.5 h, read-out: cm.tc.90min
[6] = Cardiomyocyte, 24 h, read-out: cm.cam.24hrs
[7] = Cardiomyocyte, 24 h, read-out: cm.mii.24hrs
[8] = Cardiomyocyte, 24 h, read-out: cm.mito.24hrs
[9] = Cardiomyocyte, 24 h, read-out: cm.tc.24hrs
[10] = HUVECs, 24 hr, read-out: huvec.cyto.24hr
[11] = HUVECs, 24 hr, read-out: huvec.mito.24hr
[12] = HUVECs, 24 hr, read-out: huvec.mitoint.24hr
[13] = HUVECs, 24 hr, read-out: huvec.nma.24hr
[14] = HUVECs, 24 hrs, read-out: huvec.tc.24hrs

## O=C1C=CC(=O)C(c2ccc(Cl)cc2)=C1 [4-Cl-BQ, 2-(4-Chlorophenyl)benzo-2,5-quinone]
[1]; [2]
  viability at 0.01 µM: 103%
  viability at 0.1 µM: 96.5%
  viability at 1 µM: 100%
  viability at 10 µM: 103%
  viability at 100 µM: 29.9%
[1]; [3]
  activity at 0.01 µM: 106%
  activity at 0.1 µM: 116%
  activity at 1 µM: 117%
  activity at 10 µM: 91.5%
  activity at 100 µM: 8.08%
[1]; [4]
  activity at 0.01 µM: 103%
  activity at 0.1 µM: 95.9%
  activity at 1 µM: 100%
  activity at 10 µM: 102%
  activity at 100 µM: 0.09%
[1]; [5]
  viability at 0.01 µM: 103%
  viability at 0.1 µM: 96.2%
  viability at 1 µM: 100%
  viability at 10 µM: 103%
  viability at 100 µM: 100%
[1]; Cardiomyocyte, 1.5 h, cardiomyocytes (cm), cam, 90 min, read-out: POD cm.cam.90min
  minimal effective concentration: 37.6 µM
[1]; Cardiomyocyte, 1.5 h, cardiomyocytes (cm), mii, 90 min, read-out: POD cm.mii.90min
  minimal effective concentration: 9.33 µM
[1]; Cardiomyocyte, 1.5 h, cardiomyocytes (cm), mito, 90 min, read-out: POD cm.mito.90min
  minimal effective concentration: 38.7 µM
[1]; Cardiomyocyte, 1.5 h, cardiomyocytes (cm), tc, 90 min, read-out: POD cm.tc.90min
  minimal effective concentration: 100 µM
[1]; [6]
  viability at 0.01 µM: 92.6%
  viability at 0.1 µM: 98.4%
  viability at 1 µM: 105%
  viability at 10 µM: 51.1%
  viability at 100 µM: 66.6%
[1]; [7]
  activity at 0.01 µM: 100%
  activity at 0.1 µM: 110%
  activity at 1 µM: 97.3%
  activity at 10 µM: 128%
  activity at 100 µM: 0.9%
[1]; [8]
  activity at 0.01 µM: 89.4%
  activity at 0.1 µM: 96.5%
  activity at 1 µM: 103%
  activity at 10 µM: 50.9%
  activity at 100 µM: 0.05%
[1]; [9]
  viability at 0.01 µM: 92.8%
  viability at 0.1 µM: 99.1%
  viability at 1 µM: 105%
  viability at 10 µM: 50.4%
  viability at 100 µM: 100%
[1]; Cardiomyocyte, 24 h, cardiomyocytes (cm), cam, 24 hrs, read-out: POD cm.cam.24hrs
  minimal effective concentration: 0.06 µM
[1]; Cardiomyocyte, 24 h, cardiomyocytes (cm), mii, 24 hrs, read-out: POD cm.mii.24hrs
  minimal effective concentration: 46.4 µM
[1]; Cardiomyocyte, 24 h, cardiomyocytes (cm), mito, 24 hrs, read-out: POD cm.mito.24hrs
  minimal effective concentration: 3.85 µM
[1]; Cardiomyocyte, 24 h, cardiomyocytes (cm), tc, 24 hrs, read-out: POD cm.tc.24hrs
  minimal effective concentration: 100 µM
[1]; iPSC-CM, 1.5 h, iPSC-CM, read-out: cm.cam.90min POD
  minimal effective concentration: 37.6 µM
[1]; iPSC-CM, 1.5 h, iPSC-CM, read-out: cm.mii.90min POD
  minimal effective concentration: 9.33 µM
[1]; iPSC-CM, 1.5 h, iPSC-CM, read-out: cm.mito.90min POD
  minimal effective concentration: 38.7 µM
[1]; iPSC-CM, 1.5 h, iPSC-CM, read-out: cm.tc.90min POD
  minimal effective concentration: 100 µM
[1]; iPSC-CM, 24 h, iPSC-CM, read-out: cm.cam.24hrs POD
  minimal effective concentration: 0.06 µM
[1]; iPSC-CM, 24 h, iPSC-CM, read-out: cm.mii.24hrs POD
  minimal effective concentration: 46.4 µM
[1]; iPSC-CM, 24 h, iPSC-CM, read-out: cm.mito.24hrs POD
  minimal effective concentration: 3.85 µM
[1]; iPSC-CM, 24 h, iPSC-CM, read-out: cm.tc.24hrs POD
  minimal effective concentration: 100 µM
HUVECs; cyto, 24 hr, read-out: POD huvec.cyto.24hr
  minimal effective concentration: 0.00637 µM
HUVECs; mito, 24 hr, read-out: POD huvec.mito.24hr
  minimal effective concentration: 0.08 µM
HUVECs; mitoint, 24 hr, read-out: POD huvec.mitoint.24hr
  minimal effective concentration: 0.68 µM
HUVECs; nma, 24 hr, read-out: POD huvec.nma.24hr
  minimal effective concentration: 0.53 µM
HUVECs; tc, 24 hr, read-out: POD huvec.tc.24hr
  minimal effective concentration: 0.00637 µM
HUVECs; [10]
  viability at 0.01 µM: 89.2%
  viability at 0.1 µM: 101%
  viability at 1 µM: 75.5%
  viability at 10 µM: 56%
  viability at 100 µM: 87.4%
HUVECs; [11]
  activity at 0.01 µM: 87.8%
  activity at 0.1 µM: 101%
  activity at 1 µM: 69.3%
  activity at 10 µM: 30.5%
  activity at 100 µM: 1.29%
HUVECs; [12]
  activity at 0.01 µM: 92.4%
  activity at 0.1 µM: 105%
  activity at 1 µM: 58.6%
  activity at 10 µM: 10.8%
  activity at 100 µM: 44%
HUVECs; [13]
  activity at 0.01 µM: 101%
  activity at 0.1 µM: 101%
  activity at 1 µM: 81.8%
  activity at 10 µM: 74.2%
  activity at 100 µM: 73.5%
HUVECs; HUVECs, 24 hr, top concentration 100.00 µM, read-out: huvec.cyto.24hr POD
  minimal effective concentration: 0.00637 µM
HUVECs; HUVECs, 24 hr, top concentration 100.00 µM, read-out: huvec.mito.24hr POD
  minimal effective concentration: 0.08 µM
HUVECs; HUVECs, 24 hr, top concentration 100.00 µM, read-out: huvec.mitoint.24hr POD
  minimal effective concentration: 0.68 µM
HUVECs; HUVECs, 24 hr, top concentration 100.00 µM, read-out: huvec.nma.24hr POD
  minimal effective concentration: 0.53 µM
HUVECs; [14]
  viability at 0.01 µM: 89.3%
  viability at 0.1 µM: 101%
  viability at 1 µM: 75.5%
  viability at 10 µM: 56%
  viability at 100 µM: 99.4%
HUVECs; HUVECs, 24 hrs, top concentration 100.00 µM, read-out: huvec.tc.24hrs POD
  minimal effective concentration: 0.00637 µM
